Experimental data: US4929751A, “Vinyl tricarbonyl compounds and methods of making the same” (Yale University, priority 1987, dated 1990)
Read-outs that look alike come from different tables or passages of the source.

What was measured:
Assay in all cases: growth inhibition of tumor cell line
Type in all cases: cell-based
[1] = test system: A549 (nonsmall cell lung cancer); settings: Homo sapiens, logarithm of the concentration inhibiting growth by 50%
Text: (§1) t-Butyl 2,3-dioxo-pent-4-enoate hydrate (A) was contacted with various cell lines as indicated on Table 1 hereinbelow in the column designated as "CELL" or "TUMOR". […]
(§2) Table 1 reports and illustrates the results obtained by testing t-butyl 2,3-dioxo-pent-4-enoate hydrate. The concentration of this compound found to inhibit the growth of each cell line listed under "CELL" by 50% is reported under "LOG(IC50)" as the logarithm of the concentration. The units of concentration are either molarity in which case an "M" is shown in parentheses next to the LOG(IC50) label, or micrograms per ml, in which case a "W" (for weight) is shown in parenthesis. The cell line names are grouped by disease type and the disease type names are listed on the far left.

A704 (renal) = settings: Homo sapiens
Text: as §1, §2

CAKI-1 (renal) = settings: Homo sapiens
Text: as §1, §2

CCRF-CEM (leukemia) = settings: Homo sapiens
Text: as §1, §2

[2] = test system: DMS114 (small cell lung cancer); settings: Homo sapiens
Text: as §1, §2

[3] = test system: H125 (nonsmall cell lung cancer); settings: Homo sapiens, NCI-H125
Text: as §1, §2

[4] = test system: H23 (nonsmall cell lung cancer)
Text: as §1, §2

[5] = test system: H322 (nonsmall cell lung cancer); settings: NCI-H322
Text: as §1, §2

[6] = test system: H358 (nonsmall cell lung cancer); settings: Homo sapiens, NCI-H358
Text: as §1, §2

[7] = test system: H522 (nonsmall cell lung cancer); settings: Homo sapiens, NCI-H522
Text: as §1, §2

[8] = test system: H524 (small cell lung cancer); settings: Homo sapiens, NCI-H524
Text: as §1, §2

[9] = test system: H69 (small cell lung cancer)
Text: as §1, §2

HCC-2998 (colon) = settings: Homo sapiens
Text: as §1, §2

K562 (leukemia) = settings: Homo sapiens
Text: as §1, §2

MALME-3M (melanoma) = settings: Homo sapiens
Text: as §1, §2

MOLT-4 (LEU) = settings: Homo sapiens, status R (not acceptable test)
Text: as §1, §2

OVCAR-3 (ovarian) = settings: Homo sapiens
Text: as §1, §2

OVCAR-4 (ovarian) = settings: Homo sapiens, logarithm of the concentration inhibiting growth by 50%
Text: as §1, §2

P388/ADR = settings: Mus musculus
Text: as §1, §2

SK-MEL2 (melanoma) = settings: Homo sapiens
Text: as §1, §2

SK-MEL5 (melanoma) = settings: Homo sapiens
Text: as §1, §2

[10] = test system: SK-MES-1 (nonsmall cell lung cancer); settings: Homo sapiens, SK-MES1, logarithm of the concentration inhibiting growth by 50%
Text: as §1, §2

[11] = test system: SNB-19 (central nervous system); settings: Homo sapiens
Text: as §1, §2

[12] = test system: SNB-44 (central nervous system)
Text: as §1, §2

[13] = test system: SNB-75 (central nervous system); settings: Homo sapiens
Text: as §1, §2

SW620 (colon) = settings: Homo sapiens
Text: as §1, §2

[14] = test system: TE-671 (central nervous system); settings: Homo sapiens
Text: as §1, §2

UO-31 (renal) = settings: Homo sapiens, logarithm of the concentration inhibiting growth by 50%
Text: as §1, §2

[15] = logarithm of the concentration inhibiting growth by 50%, read-out: LOG(IC50) (converted)

C=CC(=O)C(O)(O)C(=O)OC(C)(C)C [t-butyl 2,3-dioxo-pent-4-enoate hydrate]
IC50 [1]: > 251 µM
IC90 (A704 (renal)): 229 µM
IC50 (A704 (renal); [15]): 50.1 µM
IC50 (A704 (renal); read-out: IC-50 MEAN): 46.6 µM
IC90 (CAKI-1 (renal)): 202 µM
IC50 (CAKI-1 (renal); [15]): 50.1 µM
IC50 (CAKI-1 (renal); read-out: IC-50 MEAN): 64.9 µM
IC50 (CCRF-CEM (leukemia); CCRF-CE, logarithm of the concentration inhibiting growth by 50%, read-out: LOG(IC50) (converted)): 7.94 µM
IC50 (CCRF-CEM (leukemia); read-out: IC-50 MEAN): 8.05 µM
IC90 ([2]; DMS-114): 264 µM
IC50 ([2]; DMS-114, logarithm of the concentration inhibiting growth by 50%, read-out: LOG(IC50) (converted)): 126 µM
IC50 ([2]; DMS-114, read-out: IC-50 MEAN): 141 µM
IC50 ([3]; H125, logarithm of the concentration inhibiting growth by 50%, read-out: LOG(IC50) (converted)): 50.1 µM
IC50 ([3]; read-out: IC-50 MEAN): 73.3 µM
IC50 ([4]; H23, logarithm of the concentration inhibiting growth by 50%, read-out: LOG(IC50) (converted)): 50.1 µM
IC90 ([4]; Homo sapiens, NCI-H23): 197 µM
IC50 ([4]; Homo sapiens, NCI-H23, read-out: IC-50 MEAN): 52.7 µM
IC90 [5]: 246 µM
IC50 ([5]; H322, logarithm of the concentration inhibiting growth by 50%, read-out: LOG(IC50) (converted)): 50.1 µM
IC50 ([5]; read-out: IC-50 MEAN): 48.7 µM
IC50 ([6]; H358, logarithm of the concentration inhibiting growth by 50%, read-out: LOG(IC50) (converted)): 158 µM
IC50 ([6]; read-out: IC-50 MEAN): 155 µM
IC50 ([7]; H522, logarithm of the concentration inhibiting growth by 50%, read-out: LOG(IC50) (converted)): 15.8 µM
IC50 ([7]; read-out: IC-50 MEAN): 14.3 µM
IC90 [8]: 189 µM
IC50 ([8]; H524, logarithm of the concentration inhibiting growth by 50%, read-out: LOG(IC50) (converted)): 39.8 µM
IC50 ([8]; read-out: IC-50 MEAN): 40.8 µM
IC50 ([9]; H69, logarithm of the concentration inhibiting growth by 50%, read-out: LOG(IC50) (converted)): 100 µM
IC90 ([9]; Homo sapiens, NCI-H69): 269 µM
IC50 ([9]; Homo sapiens, NCI-H69, read-out: IC-50 MEAN): 95.5 µM
IC50 (HCC-2998 (colon); HCC 2998, HCC2998, logarithm of the concentration inhibiting growth by 50%, read-out: LOG(IC50)): > 50.1 µM
IC50 (HCC-2998 (colon); HCC-2998, read-out: IC-50 MEAN): 52 µM
IC90 (K562 (leukemia)): 225 µM
IC50 (K562 (leukemia); [15]): 100 µM
IC50 (K562 (leukemia); read-out: IC-50 MEAN): 90.3 µM
IC90 (MALME-3M (melanoma)): 180 µM
IC50 (MALME-3M (melanoma); MALME-3, logarithm of the concentration inhibiting growth by 50%, read-out: LOG(IC50) (converted)): 100 µM
IC50 (MALME-3M (melanoma); read-out: IC-50 MEAN): 78.8 µM
IC90 (MOLT-4 (LEU)): 244 µM
IC90 (OVCAR-3 (ovarian)): 270 µM
IC50 (OVCAR-3 (ovarian); [15]): 100 µM
IC50 (OVCAR-3 (ovarian); read-out: IC-50 MEAN): 96.6 µM
IC50 (OVCAR-4 (ovarian)): 251 µM
IC90 (P388/ADR): 244 µM
IC50 (P388/ADR; P388/AD, logarithm of the concentration inhibiting growth by 50%, read-out: LOG(IC50) (converted)): 126 µM
IC50 (P388/ADR; read-out: IC-50 MEAN): 118 µM
IC90 (SK-MEL2 (melanoma); SK-MEL-2): 174 µM
IC50 (SK-MEL2 (melanoma); SK-MEL-2, logarithm of the concentration inhibiting growth by 50%, read-out: LOG(IC50) (converted)): 79.4 µM
IC50 (SK-MEL2 (melanoma); SK-MEL-2, read-out: IC-50 MEAN): 73.5 µM
IC90 (SK-MEL5 (melanoma); SK-MEL-5): 222 µM
IC50 (SK-MEL5 (melanoma); SK-MEL-5, logarithm of the concentration inhibiting growth by 50%, read-out: LOG(IC50) (converted)): 63.1 µM
IC50 (SK-MEL5 (melanoma); SK-MEL-5, read-out: IC-50 MEAN): 74.2 µM
IC50 [10]: > 25.1 µM
IC90 [11]: 243 µM
IC50 [11, 15]: 100 µM
IC50 ([11]; read-out: IC-50 MEAN): 95.2 µM
IC90 ([12]; SNB44): 235 µM
IC50 ([12]; SNB44, logarithm of the concentration inhibiting growth by 50%, read-out: LOG(IC50) (converted)): 100 µM
IC50 ([12]; SNB44, read-out: IC-50 MEAN): 94 µM
IC90 [13]: 231 µM
IC50 [13, 15]: 79.4 µM
IC50 ([13]; read-out: IC-50 MEAN): 81.5 µM
IC90 (SW620 (colon); SW-620): 234 µM
IC50 (SW620 (colon); SW-620, logarithm of the concentration inhibiting growth by 50%, read-out: LOG(IC50) (converted)): 63.1 µM
IC50 (SW620 (colon); SW-620, read-out: IC-50 MEAN): 58 µM
IC90 [14]: 231 µM
IC50 [14, 15]: 126 µM
IC50 ([14]; read-out: IC-50 MEAN): 114 µM
IC50 (UO-31 (renal)): > 251 µM
